Test system: c-myc in 22RV-1 cells
Experiment: Human c-myc ELISA assay
Assay type: cell-based
Settings: Homo sapiens; for Emax: 22Rv1, 18 h, read-out: Degradation of BRD4: Maximum inhibition (%) c-Myc ELISA in 22RV1 cells; for DC50: 22Rv1, read-out: Degradation of BRD4: DC50 (uM) c-Myc ELISA in 22RV1 cells
Outline: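 c-myc levels measured by ELISA in RIPA lysates of 22RV-1 cells, calibrated with a 333-0 pg/ml standard curve. Lysates came from cells exposed for 18 h to an 8-point, 1:3 dose series starting at 300 nM or 1 μM final in 0.1% DMSO. Suppression potency given as DC50.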

DC50 [µM] | SMILES | Emax [%]
0.1 to 1 | Cc1ncsc1-c1ccc([C@H](C)NC(=O)[C@@H]2C[C@@H](O)CN2C(=O)[C@@H](NC(=O)CN2CCC(N3CCC(NC(=O)C[C@@H]4N=C(c5ccc(Cl)cc5)c5c(sc(C)c5C)-n5c(C)nnc54)CC3)CC2)C(C)(C)C)cc1 [Example 353, (2S,4R)-1-[(2S)-2-{2-[4-(4-{2-[(9S)-7-(4-chlorophenyl)-4,5,13-trimethyl-3-thia-1,8,11,12-tetraazatricyclo[8.3.0.0^2,6]trideca-2(6),4,7,10,12-[0261]pentaen-9-yl]acetamido}piperidin-1-yl)piperidin-1-yl]acetamido}-3,3-dimethylbutanoyl]-4-hydroxy-N-[(1S)-1-[4-(4-methyl-1,3-thiazol-5-yl)phenyl]ethyl]pyrrolidine-2-carboxamide] | > 90
0.01 to 0.1 | Cc1ncsc1-c1ccc([C@H](C)NC(=O)[C@@H]2C[C@@H](O)CN2C(=O)[C@H](C(C)C)n2cc(-c3ccnc(O[C@H]4C[C@@H](NC(=O)C[C@@H]5N=C(c6ccc(Cl)cc6)c6c(sc(C)c6C)-n6c(C)nnc65)C4)n3)cn2)cc1 [Example 301] | 95
< 0.01 | Cc1ncsc1-c1ccc(CNC(=O)[C@@H]2C[C@@H](O)CN2C(=O)[C@@H](NC(=O)COCc2ccc(Oc3cccc(NC(=O)C[C@@H]4N=C(c5ccc(Cl)cc5)c5c(sc(C)c5C)-n5c(C)nnc54)c3)cc2)C(C)(C)C)cc1 [Example 95] | 99.5

The remaining lines, values behind:

SMILES | DC50 [µM] | Emax [%]
Cc1ncsc1-c1ccc(CNC(=O)[C@@H]2C[C@@H](O)CN2C(=O)[C@@H](NC(=O)COCCN2CCN(c3ccc([C@H](C)NC(=O)C[C@@H]4N=C(c5ccc(Cl)cc5)c5c(sc(C)c5C)-n5c(C)nnc54)cc3)CC2)C(C)(C)C)cc1 [Example 58, (2S,4R)-1-[(2S)-2-{2-[2-(4-{4-[(1S)-1-{2-[(9S)-7-(4-chlorophenyl)-4,5,13-trimethyl-3-thia-1,8,11,12-tetraazatricyclo[8.3.0.0^2,^6]trideca-2(6),4,7,10,12-pentaen-9-yl]acetamido}ethyl]phenyl}piperazin-1-yl)ethoxy]acetamido}-3,3-dimethylbutanoyl]-4-hydroxy-N-{[4-(4-methyl-1,3-thiazol-5-yl)phenyl]methyl}pyrrolidine-2-carboxamide] | 0.1 to 1 | 88
Cc1ncsc1-c1ccc([C@H](C)NC(=O)[C@@H]2C[C@H](O)CN2C(=O)[C@@H](NC(=O)COCCCOCCNC(=O)C[C@@H]2N=C(c3ccc(Cl)cc3)c3c(sc(C)c3C)-n3c(C)nnc32)C(C)(C)C)cc1 [Example 71] | > 1 | 11.2
Cc1ncsc1-c1ccc(CNC(=O)[C@@H]2C[C@@H](O)CN2C(=O)[C@@H](NC(=O)COCCN2CCN(c3ccc([C@@H](C)NC(=O)C[C@@H]4N=C(c5ccc(Cl)cc5)c5c(sc(C)c5C)-n5c(C)nnc54)cc3)CC2)C(C)(C)C)cc1 [Example 59] | 0.1 to 1 | 95
Cc1ncsc1-c1ccc(CNC(=O)[C@@H]2C[C@@H](O)CN2C(=O)[C@H](C(C)C)N2Cc3ccccc3C2=O)c(OCCOCCOCCOCCNC(=O)C[C@@H]2N=C(c3ccc(Cl)cc3)c3c(sc(C)c3C)-n3c(C)nnc32)c1 [Example 1, (2S,4R)-N-{[2-(2-{2-[2-(2-{2-[(9S)-7-(4-chlorophenyl)-4,5,13-trimethyl-3-thia-1,8,11,12-tetraazatricyclo[8.3.0.0^2,^6]trideca-2(6),4,7,10,12-pentaen-9-yl]acetamido}ethoxy)ethoxy]ethoxy}ethoxy)-4-(4-methyl-1,3-thiazol-5-yl)phenyl]methyl}-4-hydroxy-1-[(2S)-3-methyl-2-(1-oxo-2,3-dihydro-1H-isoindol-2-yl)butanoyl]pyrrolidine-2-carboxamide] | 0.1 to 1 | 100
Cc1ncsc1-c1ccc(CNC(=O)[C@@H]2C[C@H](O)CN2C(=O)[C@@H](NC(=O)COCCCOCCNC(=O)C[C@@H]2N=C(c3ccc(Cl)cc3)c3c(sc(C)c3C)-n3c(C)nnc32)C(C)(C)C)cc1 [Example 73] | > 1 | 21.4
